# From patent US11066399B2, “Ferroportin inhibitors” (Vifor (International) AG, priority 2015, dated 2021)
# Marks after values point to notes of the source that are not given here.
# Assays:
# anemic Wistar rats = assay: Prevention of iron absorption in anemic rats; format: in vivo, rat; settings: 1 h before 0.5 mg/kg ferrous sulfate
# Method: To assess the in vivo efficacy of ferroportin (Fpn) inhibitors to block iron absorption, a series of Fpn inhibitors were tested in an anemic rat model for iron absorption. Wistar rats (3-4 weeks old, n=5, Janvier Labs) were fed a low iron diet (Provimi-Kliba, Cat. 2039) until their hemoglobin (Hb) values reach 7-8 g/dl one day before dosing of the Fpn inhibitor compounds. One hour before oral application of 0.5 mg/kg of ferrous sulfate, test compounds formulated in methyl cellulose or Cremophor were dosed orally. Blood samples were taken by tail vein puncture one hour before administration of iron (−1 h), immediately after dosing of the Fpn inhibitors (0 h) and one hour (1 h), three hours (3 h) and occasionally up to 6 hours (6 h) after dosing of the test compounds. Serum iron levels were measured (Abbott Diagnostics, Cat. 6K95) and inhibition of the rise of serum iron three hours after dosing of the test compound was calculated as a measure for efficacy of the Fpn inhibitors in blocking iron absorption (Table 7).
# naïve WT C57BL/6 mice = assay: Hypoferremia in naïve mice; format: in vivo, mouse; settings: Mus musculus, po, 3 h, read-out: Serum Iron Reduction at 3 h (%)
# Method: Female C57BL/6 mice (Janvier, France) at age of 9 weeks were fed a standard diet (Harlan Provimi Kliba 3436) and treated per os (p.o.) with compounds or the corresponding amount of vehicle at a volume of 10 ml/kg body weight. Fpn inhibitors were formulated in 0.5% methylcellulose/water or 20% cremophor EL/water and dosed p.o. in mice at 10, 30 or 100 mg/kg body weight. Three hours later, mice were pre-terminally anesthetized in isoflurane chambers and blood was collected by retro-orbital bleeding. Mice were sacrificed by cervical dislocation and spleens, livers and duodena were harvested and used for biomarker analysis. All experiments have been conducted in compliance with the license approved by the responsible veterinarian authorities. Serum was isolated by centrifugation of blood into gel-containing microtainers and serum iron was determined by the MULTIGENT Iron assay (Abbott Diagnostics, 6K95). Eight mice per group were used and one-way ANOVA with Bonferroni's multiple comparison test was performed to analyze the statistical differences between the experimental groups.
# Relative serum iron reduction at 3 h after dosing was calculated by subtracting the average of serum iron values of animals dosed with the Fpn inhibitor from that of vehicle-treated animals. The difference in average serum iron values between vehicle and compound treated groups was then divided by the average of serum iron of the vehicle control group and listed as percentage.
# Hbb th3/+ mice [1] = assay: Improvement of anemia, ineffective erythropoiesis and iron overload in a mouse model of β-thalassemia intermedia; format: in vivo; settings: hemoglobin difference to vehicle
# b2m−/− mice = assay: Correction of hyperferremia in beta2-microglobulin deficient mice; format: in vivo, mouse; settings: male b2m−/− mice, Dose 20 mg/kg oral, blood collected 1 (#) hour after dosing
# Method: Female and male homozygous b2m−/− mice were supplied from Jackson Laboratories (B6.129P2-B2mtm1Unc/J, Stock Number: 002087) at age of 6 to 7 weeks and fed standard diet (Harlan Provimi Kliba 3436) ad libitum. Age and gender matched WT C57BL/6 mice are supplied by Charles River. To study the acute effects of ferroportin (Fpn) inhibitors in iron overload b2m−/− mice were treated with compounds or the corresponding amount of vehicle at a volume of 10 ml/kg body weight. Fpn inhibitor compounds were formulated in 0.5% methylcellulose/water or 20% cremophor EL/water and dosed p.o. in mice at 50 mg/kg body weight. WT controls received only vehicle. Three hours later, mice were pre-terminally anesthetized in isoflurane chambers and blood was collected by retro-orbital bleeding. Mice were sacrificed by cervical dislocation and spleens, livers and duodena were harvested and used for biomarker analysis. All experiments have been performed in compliance with license approved by the responsible veterinarian authorities. Serum was isolated by centrifugation of blood into gel-containing microtainers (BD Biosciences) and serum iron was determined by the MULTIGENT Iron assay (Abbott Diagnostics, Cat. 6K95). Four to nine mice per group were used and one-way ANOVA with Bonferroni's multiple comparison test was applied to analyze the statistical differences between the experimental groups.
# Blood was collected 1 (#) or 3 (##) hours after oral administration of the indicated doses of Fpn inhibitors to beta2-microglobulin deficient mice and serum iron concentrations were measured. Relative reduction (%) of serum iron levels are shown, which were calculated by subtracting the average of serum iron values of animals dosed with the Fpn inhibitor from that of vehicle-treated animals. The difference in average serum iron values between vehicle and compound treated groups was then divided by the average of serum iron of the vehicle control group and listed as percentage.
# Hbb th3/+ mice [2] = assay: Improvement of anemia, ineffective erythropoiesis and iron overload in a mouse model of β-thalassemia intermedia; format: in vivo; settings: % change to vehicle; for Decrease in serum iron: dosed for 3 h
# Method: The efficacy of Fpn inhibitors was investigated using a mouse model of transfusion-independent β-thalassemia. Mice with heterozygous deletion of β1 and β2 globin genes (called Hbb th3/+ mice) develop transfusion-independent anemia, ineffective erythropoiesis, splenomegaly and secondary iron overload in spleen, liver and kidneys. […] Hbb th3/+ mice were dosed twice daily with either compound at 20 or 60 mg/kg or with methylcellulose (10 ml/kg, Sigma, Cat. 274429) as a vehicle. Between both doses mice had access to drinking water supplemented with 1 mM ^58Fe(II)-sulfate (Vifor Pharma, Batch No. ROR 3096) and 10 mM ascorbic acid (Sigma, Cat. 795437) for 6 h. […] Water without ^58Fe(II)-Sulfate and ascorbic acid was provided during the remaining 18 h. Dosing of Fpn inhibitors or vehicle followed by exposure to iron-containing water was repeated for 20 to 46 days in individual experiments.
# Additional hematologic parameters were measured in terminal blood using automated blood cell analyzer.
# The inefficient erythropoiesis of Hbb th3/+ mice causes excessive proliferation of erythroid precursors in spleen, leading to splenomegaly.
# Erythroferrone is produced by erythrocyte precursors proliferating massively in spleens of Hbb th3/+ mice as a consequence of extramedullar erythropoiesis.
# Increased iron demand due to inefficient erythropoiesis and chronically low hepcidin levels in patients with thalassemia causes organ iron loading and associated morbidities, such as hepatocellular carcinoma and heart failure (Rivella S. Haematologica, 2015). Hbb th3/+ mice absorb excessive amounts of iron as a consequence of inadequately low hepcidin levels relative to the high iron content in liver, spleen and kidney and increased ferroportin expression in duodenum (Gardenghi S., Blood, 2007).
# Additionally, reactive oxygen species (ROS) were detected in bone marrow cells using a fluorescent indicator, CM-H2DCFDA (Thermo Fisher Scientific, Cat. C6827).
# Table 10. Efficacy of Ferroportin inhibitors in a mouse model of thalassemia intermedia (Hbb th3/+ mice). […] Data are expressed as difference to the vehicle control group for hemoglobin and as % change to the vehicle control group for all other parameter shown
smiles,measurement,setting,value
O=C(NCc1ncccc1F)c1cnc(CCNCCc2nc3ccccc3[nH]2)o1 [Example 1],Serum Iron Inhibition (%) at 3 h,anemic Wistar rats; Dose 10 mg/kg oral,42.6** %
same,Serum Iron Inhibition (%) at 3 h,anemic Wistar rats; Dose 30 mg/kg oral,64.9*** %
O=C(NCc1ncccc1F)c1cnn(CCNCCc2cc3ccccc3[nH]2)c1 [Example 277],inhibition in vivo at 10 mg/kg,naïve WT C57BL/6 mice,6%
same,inhibition in vivo at 30 mg/kg,naïve WT C57BL/6 mice,21%
same,inhibition in vivo at 100 mg/kg,naïve WT C57BL/6 mice,54%
O=C(NCc1ncccc1F)c1cnc(C2CN(CCc3nc4ccccc4[nH]3)C2)o1 [Example 2],Correction of anemia at day 20-48,Hbb th3/+ mice [1]; 20 mg/kg twice daily,3 g/L
same,Correction of anemia at day 20-48,Hbb th3/+ mice [1]; 60 mg/kg twice daily,11 g/L
O=C(NCc1ncccc1F)c1csc(CCNCc2nc3ccccc3[nH]2)n1 [Example 40],Serum Iron Reduction (%),b2m−/− mice,35** %
same,Decrease in serum erythropoietin,Hbb th3/+ mice [2]; 20 mg/kg twice daily for 20-46 days,6%
same,Decrease in serum iron,Hbb th3/+ mice [2]; 20 mg/kg,28%
same,Decrease in serum iron,Hbb th3/+ mice [2]; 60 mg/kg,58%
